The record followed here is patent publication US20240409556A1, “BENZOPIPERAZINE AND RELATED ANALOGS FOR INHIBITING YAP/TAZ-TEAD” (Springworks Therapeutics, Inc., priority 2023, published 2024).

As a reminder, the IC50 is the concentration that gives 50% inhibition. A lower IC50 goes with greater potency in that assay.

Each structure is given as a SMILES string. A value given as a limit tells only on which side of the number the result lay.

The test system of this assay is YAP/TAZ-TEAD transcription. Description: Reporter gene assay for measuring the inhibition of YAP/TAZ-TEAD transcription (TEAD-responsive element luciferase reporter in Hek293T cells). Conditions: Homo sapiens, HEK-293T, 24 h, 24 hours incubation. Type of assay: cell-based. Here is the method:
Example 56: Activity of Compounds of the Disclosure in a Reporter Gene Assay for Measuring the Inhibition of YAP/TAZ-TEAD Transcription
Hek293T cells were cultured in DMEM supplemented with 10% fetal bovine serum, Sodium pyruvate, Sodium bicarbonate, L-glutamine. The cells were harvested and transiently transfected with TEAD-responsive element luciferase reporter. Transfected cells were plated in 384-well plate containing pre-diluted compounds. After 24 hours incubation at 37° C./5% CO2, assay plates were cooled to room temperature and levelled to an equal volume per well, prior to the addition of 25 uL luciferase substrate SteadyLite (Perkin Elmer)/well. The plate was shaken for 10 min at 600 rpm, centrifuged for 1 min at 500 rpm and measured with an Envision reader (PerkinElmer). The amount of relative light units produced by the TEAD reporter was used to calculate the percentage of inhibition.
The percent of reporter inhibition was calculated in the presence of a positive control inhibitor (100% inhibition) versus a condition with the presence of the vehicle basal activity of the reporter (0% inhibition). The ability of a test compound to inhibit this activity was determined as: Percentage inhibition=[[…]((RLU determined in the presence of vehicle−RLU determined for sample with test compound present) divided by (RLU determined in the presence of vehicle−RLU determined for sample with positive control inhibitor))]*100.
The activities of example compounds tested are depicted in Table 3. The activity ranges A, B and C refer to IC50 values in the reporter gene assay as follows: “A”: IC50<1 μM; “B”: 1 μM≤IC50≤10 μM and “C”: IC50>10 μM; NT=not tested.
(In general: Reporter assays use an easily measured gene product as a stand-in for the process of interest.)
Compound `O=C(O)C1(O)CCN2c3ccccc3N(c3ccc(C(F)(F)F)cc3)CC2C1` (stereo not drawn) [126A, (cis)- or (trans)-8-hydroxy-5-(4-(trifluoromethyl)phenyl)-6,6a,7,8,9,10-hexahydro-5H-pyrido[1,2-a]quinoxaline-8-carboxylic acid] registered a concentration for half-maximal inhibition (IC50) of under 1000 nM.

For the compound `C=CC(=O)NCC1CN(c2ccc(C(F)(F)F)cc2)c2ccccc2N1CCO` (stereo not shown) [compound 1, N-((1-(2-hydroxyethyl)-4-(4-(trifluoromethyl)phenyl)-1,2,3,4-tetrahydroquinoxalin-2-yl)methyl)acrylamide], the IC50 is under 1000 nM. As for `CC(=O)NCC1CN(c2ccc(C(F)(F)F)cc2)c2ccccc2N1CCO` (stereo not shown) [compound 2, N-((1-(2-hydroxyethyl)-4-(4-(trifluoromethyl)phenyl)-1,2,3,4-tetrahydroquinoxalin-2-yl)methyl)acetamide], the IC50 is over 10000 nM. With `CC(=O)NCC1CN(c2ccc(C(F)(F)F)cc2)c2ccccc2N1CC#N` (stereo not shown) [compound 4, N-((1-(cyanomethyl)-4-(4-(trifluoromethyl)phenyl)-1,2,3,4-tetrahydroquinoxalin-2-yl)methyl)acetamide], the half-inhibitory concentration (IC50) lay in the range of 1000 to 10000 nM.

In the case of `C=CC(=O)NCC1CN(c2ccc(C(F)(F)F)cc2)c2ccccc2N1CCCO` (stereo not shown) [compound 5, N-((1-(3-hydroxypropyl)-4-(4-(trifluoromethyl)phenyl)-1,2,3,4-tetrahydroquinoxalin-2-yl)methyl)acrylamide], the 50% inhibitory concentration (IC50) is under 1000 nM. The compound `CC(=O)NCC1CN(c2ccc(C(F)(F)F)cc2)c2ccccc2N1CCCO` (stereo not shown) [compound 6, N-((1-(3-hydroxypropyl)-4-(4-(trifluoromethyl)phenyl)-1,2,3,4-tetrahydroquinoxalin-2-yl)methyl)acetamide] displayed an IC50 of over 10000 nM. `C=CC(=O)NCC1CN(c2ccc(C(F)(F)F)cc2)c2ccccc2N1CCC(=O)O` (stereo not shown) [compound 7, 3-(2-(acrylamidomethyl)-4-(4-(trifluoromethyl)phenyl)-3,4-dihydroquinoxalin-1(2H)-yl)propanoic acid] registered a 50% inhibitory concentration (IC50) of over 10000 nM. For the compound `CC(=O)NCC1CN(c2ccc(C(F)(F)F)cc2)c2ccccc2N1CCC(=O)O` (stereo not shown) [compound 8, 3-(2-(acetamidomethyl)-4-(4-(trifluoromethyl)phenyl)-3,4-dihydroquinoxalin-1(2H)-yl)propanoic acid], the IC50 is over 10000 nM.

As for `C=CC(=O)NCC1CN(c2ccc(C(F)(F)F)cc2)c2ccccc2N1CCC(=O)NC` (stereo not shown) [compound 9, N-((1-(3-(methylamino)-3-oxopropyl)-4-(4-(trifluoromethyl)phenyl)-1,2,3,4-tetrahydroquinoxalin-2-yl)methyl)acrylamide], the concentration for half-maximal inhibition (IC50) was under 1000 nM. To `O=C1CN2c3ccccc3N(c3ccc(C(F)(F)F)cc3)CC2CN1` (stereo not shown) [compound 10, 6-(4-(trifluoromethyl)phenyl)-4,4a,5,6-tetrahydro-1H-pyrazino[1,2-a]quinoxalin-2(3H)-one] belongs 1000 to 10000 nM; to `C=CC(=O)NCC1CN(c2ccc(C(F)(F)F)cc2)c2ccccc2N1CC(N)=O` (stereo not shown) [compound 11, N-((1-(2-amino-2-oxoethyl)-4-(4-(trifluoromethyl)phenyl)-1,2,3,4-tetrahydroquinoxalin-2-yl)methyl)acrylamide], under 1000 nM. Compound `C=CC(=O)NCC1CN(c2ccc(C(F)(F)F)cc2)c2ccccc2N1CC(=O)NC` (stereo not shown) [compound 12, N-((1-(2-(methylamino)-2-oxoethyl)-4-(4-(trifluoromethyl)phenyl)-1,2,3,4-tetrahydroquinoxalin-2-yl)methyl)acrylamide] displayed a half-maximal inhibitory concentration (IC50) of under 1000 nM.

With `CS(=O)(=O)N1CCN2c3ccccc3N(c3ccc(C(F)(F)F)cc3)CC2C1` (stereo not shown) [compound 16, 3-(methylsulfonyl)-6-(4-(trifluoromethyl)phenyl)-2,3,4,4a,5,6-hexahydro-1H-pyrazino[1,2-a]quinoxaline], the IC50 was under 1000 nM. `C=CC(=O)NCC1CN(c2ccc(C(F)(F)F)cc2)c2ccccc2N1C(C)=O` (stereo not shown) [compound 18, N-((1-acetyl-4-(4-(trifluoromethyl)phenyl)-1,2,3,4-tetrahydroquinoxalin-2-yl)methyl)acrylamide] showed an IC50 of 1000 to 10000 nM. Next, `CC(=O)NCC1CN(c2ccc(C(F)(F)F)cc2)c2ccccc2N1C` (stereo not shown) [compound 19, N-((1-methyl-4-(4-(trifluoromethyl)phenyl)-1,2,3,4-tetrahydroquinoxalin-2-yl)methyl)acetamide]: 1000 to 10000 nM.

With `COC(=O)N1CCN2c3ccccc3N(c3ccc(C(F)(F)F)cc3)CC2C1` (stereo not shown) [compound 20, methyl 6-(4-(trifluoromethyl)phenyl)-1,2,4,4a,5,6-hexahydro-3H-pyrazino[1,2-a]quinoxaline-3-carboxylate], the half-maximal inhibitory concentration (IC50) was under 1000 nM. To `C=CC(=O)N1CCN2CCN(c3ccc(C(F)(F)F)cc3)CC2C1` (stereo not shown) [compound 21, 1-(8-(4-(trifluoromethyl)phenyl)octahydro-2H-pyrazino[1,2-a]pyrazin-2-yl)prop-2-en-1-one] belongs under 1000 nM; to `C=CC(=O)NCC1CN(c2ccc(C(F)(F)F)cc2)c2ccccc2N1S(C)(=O)=O` (stereo not shown) [compound 23, N-((1-(methylsulfonyl)-4-(4-(trifluoromethyl)phenyl)-1,2,3,4-tetrahydroquinoxalin-2-yl)methyl)acrylamide], under 1000 nM. The compound `Cc1nnc(N2CCN3c4ccccc4N(c4ccc(C(F)(F)F)cc4)CC3C2)o1` (stereo not shown) [compound 24, 2-methyl-5-(6-(4-(trifluoromethyl)phenyl)-1,2,4,4a,5,6-hexahydro-3H-pyrazino[1,2-a]quinoxalin-3-yl)-1,3,4-oxadiazole] gave an IC50 of over 10000 nM. `FC(F)(F)c1ccc(N2CC3CN(c4ncco4)CCN3c3ccccc32)cc1` (stereo not shown) [compound 25, 2-(6-(4-(trifluoromethyl)phenyl)-1,2,4,4a,5,6-hexahydro-3H-pyrazino[1,2-a]quinoxalin-3-yl)oxazole] yielded an IC50 of over 10000 nM. For the compound `CN1CCN2c3ccccc3N(c3ccc(C(F)(F)F)cc3)CC2C1` (stereo not shown) [compound 26, 3-methyl-6-(4-(trifluoromethyl)phenyl)-2,3,4,4a,5,6-hexahydro-1H-pyrazino[1,2-a]quinoxaline], the IC50 is 1000 to 10000 nM. Compound `C=CC(=O)NCC1CN(c2ccc(C(F)(F)F)cc2)c2cccnc2N1C` (stereo not shown) [compound 27, N-((4-methyl-1-(4-(trifluoromethyl)phenyl)-1,2,3,4-tetrahydropyrido[2,3-b]pyrazin-3-yl)methyl)acrylamide] yielded an IC50 of under 1000 nM. In turn, `O=Cc1ccc(CN2CCN3c4ccccc4N(c4ccc(C(F)(F)F)cc4)CC3C2)cc1O` (stereo not shown) [compound 30, 2-hydroxy-4-((6-(4-(trifluoromethyl)phenyl)-1,2,4,4a,5,6-hexahydro-3H-pyrazino[1,2-a]quinoxalin-3-yl)methyl)benzaldehyde] returned a half-inhibitory concentration (IC50) of 1000 to 10000 nM.

Compound `O=C(O)CN1CCN2c3ccccc3N(c3ccc(C(F)(F)F)cc3)CC2C1` (stereo not shown) [compound 31, 2-(6-(4-(trifluoromethyl)phenyl)-1,2,4,4a,5,6-hexahydro-3H-pyrazino[1,2-a]quinoxalin-3-yl)acetic acid] had an IC50 of 1000 to 10000 nM. With `C=CC(=O)N1CCN2CC(=O)N(c3ccc(C(F)(F)F)cc3)CC2C1` (stereo not shown) [compound 33, 8-acryloyl-2-(4-(trifluoromethyl)phenyl)-hexahydro-2H-pyrazino[1,2-a]pyrazin-3(4H)-one], the half-inhibitory concentration (IC50) was under 1000 nM.
